Measured values published in ChEMBL document CHEMBL5370599, “Discovery of a 53BP1 Small Molecule Antagonist Using a Focused DNA-Encoded Library Screen” (J Med Chem, 2023).

Key:
TP53-binding protein 1 = TP53-binding protein 1 (Homo sapiens, UniProt Q12888); assay: Displacement of Biotin-p53K381acK382me2 from N-terminal his6-tagged 53BP1 (1484 to 1603 residues) (unknown origin) expressed in Rosetta2 BL21 (DE3) pLysS competent cells by TR-FRET assay; assay type: single protein
HEK-293T = assay: Cytotoxicity against HEK293T cells assessed as reduction in cell viability measured upto 200 uM by celltiterglo 2.0 assay; assay type: toxicity, cell-based; details: human
TERT-RPE1 = assay: Cytotoxicity against human RPE-1 cells assessed as reduction in cell viability measured upto 200 uM by celltiterglo 2.0 assay; assay type: toxicity, cell-based; details: tert-rpe1, 200 µM

Chain of TP53-binding protein 1 (Q12888 whole entry, the tested form may be a part): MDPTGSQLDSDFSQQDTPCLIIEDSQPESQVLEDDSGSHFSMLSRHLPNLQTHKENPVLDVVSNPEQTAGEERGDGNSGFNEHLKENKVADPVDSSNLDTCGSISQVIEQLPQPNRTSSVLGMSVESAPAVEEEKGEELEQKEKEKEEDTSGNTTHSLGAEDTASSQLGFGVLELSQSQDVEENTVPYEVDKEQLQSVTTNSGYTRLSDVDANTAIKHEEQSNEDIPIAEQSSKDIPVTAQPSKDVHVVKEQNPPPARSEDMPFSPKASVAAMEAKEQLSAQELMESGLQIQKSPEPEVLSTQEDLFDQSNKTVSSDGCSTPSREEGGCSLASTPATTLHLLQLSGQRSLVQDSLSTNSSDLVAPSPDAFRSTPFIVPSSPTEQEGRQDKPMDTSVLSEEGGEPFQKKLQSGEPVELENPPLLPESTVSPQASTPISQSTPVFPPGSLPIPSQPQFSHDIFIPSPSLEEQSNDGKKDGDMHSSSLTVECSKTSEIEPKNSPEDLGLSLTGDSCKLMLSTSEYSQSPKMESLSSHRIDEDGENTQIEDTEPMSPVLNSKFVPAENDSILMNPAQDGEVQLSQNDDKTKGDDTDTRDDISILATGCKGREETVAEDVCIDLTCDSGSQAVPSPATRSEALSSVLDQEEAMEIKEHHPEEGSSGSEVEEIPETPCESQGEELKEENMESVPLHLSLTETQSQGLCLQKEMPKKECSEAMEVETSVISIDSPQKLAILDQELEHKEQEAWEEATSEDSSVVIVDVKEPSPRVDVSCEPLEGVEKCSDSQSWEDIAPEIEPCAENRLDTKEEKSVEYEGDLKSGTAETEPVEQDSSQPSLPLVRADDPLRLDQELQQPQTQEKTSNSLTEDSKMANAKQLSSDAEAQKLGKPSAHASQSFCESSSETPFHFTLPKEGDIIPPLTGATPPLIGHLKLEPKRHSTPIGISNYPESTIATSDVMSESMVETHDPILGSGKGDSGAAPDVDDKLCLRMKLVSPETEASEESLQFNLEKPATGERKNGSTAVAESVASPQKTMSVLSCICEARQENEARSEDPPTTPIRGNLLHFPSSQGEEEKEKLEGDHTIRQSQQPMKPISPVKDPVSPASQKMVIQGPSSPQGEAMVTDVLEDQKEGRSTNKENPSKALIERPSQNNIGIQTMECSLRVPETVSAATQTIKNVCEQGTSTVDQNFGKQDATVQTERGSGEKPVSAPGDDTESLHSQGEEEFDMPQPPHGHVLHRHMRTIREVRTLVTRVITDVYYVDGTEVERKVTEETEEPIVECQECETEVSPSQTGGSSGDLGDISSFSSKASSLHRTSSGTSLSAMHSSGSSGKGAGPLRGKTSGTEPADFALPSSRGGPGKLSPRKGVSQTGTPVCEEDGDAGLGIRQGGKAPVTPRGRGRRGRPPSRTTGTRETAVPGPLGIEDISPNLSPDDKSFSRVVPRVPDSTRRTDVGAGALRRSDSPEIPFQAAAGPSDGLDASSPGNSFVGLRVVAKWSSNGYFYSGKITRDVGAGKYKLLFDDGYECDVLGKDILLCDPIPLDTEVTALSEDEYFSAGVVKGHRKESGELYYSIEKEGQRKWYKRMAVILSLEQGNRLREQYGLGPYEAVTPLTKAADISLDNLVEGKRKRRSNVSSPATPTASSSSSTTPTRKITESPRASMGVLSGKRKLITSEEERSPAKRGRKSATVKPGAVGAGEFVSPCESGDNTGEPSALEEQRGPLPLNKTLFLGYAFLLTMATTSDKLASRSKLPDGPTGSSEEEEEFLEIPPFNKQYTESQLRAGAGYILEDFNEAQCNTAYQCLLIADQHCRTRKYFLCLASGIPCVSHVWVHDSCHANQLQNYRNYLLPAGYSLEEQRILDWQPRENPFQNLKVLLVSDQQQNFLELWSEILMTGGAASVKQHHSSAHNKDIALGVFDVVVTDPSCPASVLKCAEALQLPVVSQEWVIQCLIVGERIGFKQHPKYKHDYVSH

Row | IC50 (TP53-binding protein 1) | Compound | other results
1 | 18 µM | CN1CCN(c2ccnc(C(=O)N3CCC[C@H](C(=O)Nc4cccc(-c5ccccn5)c4)C3)c2)CC1 | –
2 | 7.8 µM | CN1CCN(c2ccnc(C(=O)N3CCC[C@H](C(=O)Nc4cccc(-c5ccc6c(c5)CCN6)c4)C3)c2)CC1 | –
3 | 10 µM | COC(=O)c1cccc(-c2cccc(NC(=O)[C@H]3CCCN(C(=O)c4cc(N5CCN(C)CC5)ccn4)C3)c2)c1 | –
4 | 5.9 µM | CN1CCN(c2ccnc(C(=O)N3CCC[C@H](C(=O)Nc4cncc(-c5ccccc5)c4)C3)c2)CC1 | –
5 | 83 µM | CN1CCN(c2ccnc(C(=O)N3CCC[C@H](C(=O)Nc4cccc(-c5cccc(C(=O)O)c5)c4)C3)c2)CC1 | –
6 | 5 µM | CN1CCN(c2ccnc(C(=O)N3CCC[C@@H]3C(=O)Nc3cccc(-c4ccc(C(N)=O)cc4)c3)c2)CC1 | –
7 | 22 µM | CN1CCN(c2ccnc(C(=O)N3CCC[C@H](C(=O)Nc4ccccc4)C3)c2)CC1 | –
8 | > 100 µM | CNC(=O)[C@H]1CCCN(C(=O)c2cc(N3CCN(C)CC3)ccn2)C1 | –
9 | 6.6 µM | CN1CCN(c2ccnc(C(=O)N3CCC[C@H](C(=O)Nc4cccc(-c5ccncc5)c4)C3)c2)CC1 | –
10 | 2.2 µM | CN1CCN(c2ccnc(C(=O)N3CC[C@H](C(=O)Nc4cccc(-c5ccc(C(N)=O)cc5)c4)C3)c2)CC1 | –
11 | 28 µM | CN1CCN(c2ccnc(C(=O)N3CCC[C@H](C(=O)Nc4cccc(-c5ccc6c(c5)CCNC6)c4)C3)c2)CC1 | –
12 | 14 µM | CCCN1CCN(c2ccnc(C(=O)N3CCC[C@H](C(=O)Nc4cccc(-c5ccc(C(N)=O)cc5)c4)C3)c2)CC1 | –
13 | > 100 µM | CN1CCN(c2ccnc(C(=O)N3CCC[C@H](C(=O)Nc4cc(-c5cccnc5)ncn4)C3)c2)CC1 | –
14 | 1.4 µM | CCN1CCN(c2ccnc(C(=O)N3CCC[C@H](C(=O)Nc4cccc(-c5ccc(C(N)=O)cc5)c4)C3)c2)CC1 | –
15 | – | CN1CCN(c2ccnc(C(=O)N3CCC[C@H](C(=O)Nc4cccc(-c5ccc6c(c5)CNC6)c4)C3)c2)CC1.Cl.Cl.Cl | Activity (HEK-293T): Non-Toxic; Activity (TERT-RPE1): Non-Toxic
16 | 5.7 µM | CN1CCN(c2ccnc(C(=O)N3CC[C@H]3C(=O)Nc3cccc(-c4ccc(C(N)=O)cc4)c3)c2)CC1 | –

Row | IC50 (TP53-binding protein 1) | Compound | other results
17 | 3.4 µM | CN1CCN(c2ccnc(C(=O)N3CCC[C@H](C(=O)Nc4cccc(-c5ccc6c(c5)CNC6=O)c4)C3)c2)CC1 | –
18 | 32 µM | CN1CCN(c2ccnc(C(=O)N3CCC[C@H](C(=O)Nc4cccc(N5CCOCC5)c4)C3)c2)CC1 | –
19 | 1.3 µM | CN1CCN(c2cccc(C(=O)N3CCC[C@H](C(=O)Nc4cccc(-c5ccc(C(N)=O)cc5)c4)C3)c2)CC1 | –
20 | 38 µM | CN1CCN(c2ccnc(C(=O)N3CCC[C@H](C(=O)Nc4cccc(-c5ccc6[nH]cnc6c5)c4)C3)c2)CC1 | –
21 | 15 µM | CN1CCN(c2ccnc(C(=O)N3CCC[C@H](C(=O)Nc4cccc(-c5ccc6[nH]ncc6c5)c4)C3)c2)CC1 | –
22 | 10 µM | COC(=O)c1ccc(-c2cccc(NC(=O)[C@H]3CCCN(C(=O)c4cc(N5CCN(C)CC5)ccn4)C3)c2)cc1 | –
23 | 44 µM | CN1CCN(c2ccnc(C(=O)N3CCC[C@H](C(=O)Nc4cccc(N5CCNCC5)c4)C3)c2)CC1 | –
24 | 3.8 µM | CN1CCN(c2ccnc(C(=O)N3CCC[C@H](C(=O)Nc4cccc(-c5ccccc5)c4)C3)c2)CC1 | –
25 | 4.1 µM | CC(C)N1CCN(c2ccnc(C(=O)N3CCC[C@H](C(=O)Nc4cccc(-c5ccc(C(N)=O)cc5)c4)C3)c2)CC1 | –
26 | 12 µM | CN1CCN(c2ccnc(C(=O)N3CCC[C@H](C(=O)Nc4cccc(-c5ccc6c(c5)CCCN6)c4)C3)c2)CC1 | –
27 | 15 µM | CN1CCN(c2ccnc(C(=O)N3CCC[C@@H](C(=O)Nc4cccc(-c5ccc(C(N)=O)cc5)c4)C3)c2)CC1 | –
28 | 8.1 µM | CN1CCN(c2ccnc(C(=O)N3CCC[C@H](C(=O)Nc4cccc(-c5ccc(C(=O)O)cc5)c4)C3)c2)CC1 | –
29 | 11 µM | CNC(=O)c1cccc(-c2cccc(NC(=O)[C@H]3CCCN(C(=O)c4cc(N5CCN(C)CC5)ccn4)C3)c2)c1 | –
30 | 1.9 µM | CN1CCN(c2ccnc(C(=O)N3CCC[C@H](C(=O)Nc4cccc(-c5cccc(C(N)=O)c5)c4)C3)c2)CC1 | –
31 | 7.4 µM | CN1CCN(c2ccnc(C(=O)N3CCC[C@H](C(=O)Nc4cccc(-c5ccccc5)n4)C3)c2)CC1 | –
32 | 5.6 µM | CNC(=O)c1ccc(-c2cccc(NC(=O)[C@H]3CCCN(C(=O)c4cc(N5CCN(C)CC5)ccn4)C3)c2)cc1 | –
